# Measurements published in ChEMBL document CHEMBL3991601, “The target landscape of clinical kinase drugs” (Science, 2017).
# Where a name gives a salt, the structure may show the parent alone. Active and inactive are the calls of the source. For most assays here, no stated cut-off is given here; in the data, actives have a measured Kd and inactives only a lower limit.
# How the values were obtained:
# Aurora kinase B = Aurora kinase B (Homo sapiens, UniProt Q96GD4)
# Myosin-14 = Myosin-14 (Homo sapiens, UniProt Q7Z406)
# [1] = molecular target: T1, Dynamin-like GTPase OPA1, mitochondrial (Homo sapiens, UniProt O60313)
# T1 sequence (O60313 whole entry): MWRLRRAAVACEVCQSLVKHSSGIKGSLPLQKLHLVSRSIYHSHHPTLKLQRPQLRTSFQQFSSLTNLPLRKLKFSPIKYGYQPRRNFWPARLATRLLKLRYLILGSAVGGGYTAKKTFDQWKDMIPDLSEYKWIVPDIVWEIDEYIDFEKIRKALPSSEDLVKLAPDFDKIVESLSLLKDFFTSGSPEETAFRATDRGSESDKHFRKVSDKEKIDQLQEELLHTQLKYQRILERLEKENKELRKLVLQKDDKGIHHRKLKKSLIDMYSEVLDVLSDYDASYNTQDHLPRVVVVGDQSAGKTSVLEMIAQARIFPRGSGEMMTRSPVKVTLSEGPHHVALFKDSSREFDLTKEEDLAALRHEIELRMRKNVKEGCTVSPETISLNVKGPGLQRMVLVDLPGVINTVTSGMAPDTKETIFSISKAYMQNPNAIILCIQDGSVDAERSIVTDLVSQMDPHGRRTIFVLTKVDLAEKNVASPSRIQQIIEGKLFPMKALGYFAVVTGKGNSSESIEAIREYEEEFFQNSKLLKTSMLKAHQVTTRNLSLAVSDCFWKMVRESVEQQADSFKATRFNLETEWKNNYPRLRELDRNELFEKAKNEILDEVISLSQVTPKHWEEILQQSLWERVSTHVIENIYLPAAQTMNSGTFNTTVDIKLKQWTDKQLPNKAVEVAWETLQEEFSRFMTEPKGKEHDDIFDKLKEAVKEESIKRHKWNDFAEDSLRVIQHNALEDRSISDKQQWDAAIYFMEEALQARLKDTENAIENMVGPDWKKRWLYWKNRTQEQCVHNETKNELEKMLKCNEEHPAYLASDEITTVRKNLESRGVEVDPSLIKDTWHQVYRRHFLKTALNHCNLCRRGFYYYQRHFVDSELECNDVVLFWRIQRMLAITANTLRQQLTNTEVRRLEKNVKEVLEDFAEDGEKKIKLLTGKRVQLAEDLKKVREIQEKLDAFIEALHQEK
# [2] = molecular target: Serine/threonine-protein kinase N1 (Homo sapiens, UniProt Q16512)
# [3] = molecular target: Protein kinase C beta type (Homo sapiens, UniProt P05771)
# [4] = molecular target: T2, Serine/threonine-protein kinase TAO3 (Homo sapiens, UniProt Q9H2K8)
# T2 sequence (Q9H2K8 whole entry): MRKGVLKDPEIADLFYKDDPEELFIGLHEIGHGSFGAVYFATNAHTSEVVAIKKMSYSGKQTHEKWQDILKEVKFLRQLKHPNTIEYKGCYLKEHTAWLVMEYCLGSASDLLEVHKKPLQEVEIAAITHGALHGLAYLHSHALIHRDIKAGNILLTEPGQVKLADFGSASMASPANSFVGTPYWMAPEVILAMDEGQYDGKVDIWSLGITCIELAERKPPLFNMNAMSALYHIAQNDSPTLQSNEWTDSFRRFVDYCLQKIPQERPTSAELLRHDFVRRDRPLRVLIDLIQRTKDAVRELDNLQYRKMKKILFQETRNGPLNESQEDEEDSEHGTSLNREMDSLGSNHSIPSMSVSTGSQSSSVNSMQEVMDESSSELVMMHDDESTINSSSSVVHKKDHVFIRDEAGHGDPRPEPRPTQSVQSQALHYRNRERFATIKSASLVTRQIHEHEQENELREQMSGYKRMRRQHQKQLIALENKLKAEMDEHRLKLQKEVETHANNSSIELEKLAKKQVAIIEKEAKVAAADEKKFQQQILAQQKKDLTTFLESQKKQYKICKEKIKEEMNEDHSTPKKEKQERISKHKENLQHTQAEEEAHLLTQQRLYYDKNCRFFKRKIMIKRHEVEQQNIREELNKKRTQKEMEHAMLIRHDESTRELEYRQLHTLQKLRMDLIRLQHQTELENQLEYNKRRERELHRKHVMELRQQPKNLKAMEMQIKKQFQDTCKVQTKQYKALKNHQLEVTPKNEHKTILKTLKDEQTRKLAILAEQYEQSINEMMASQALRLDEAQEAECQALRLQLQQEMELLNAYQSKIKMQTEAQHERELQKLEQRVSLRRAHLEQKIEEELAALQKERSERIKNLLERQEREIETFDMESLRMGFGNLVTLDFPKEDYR
# Chain of Protein kinase C beta type (P05771 whole entry): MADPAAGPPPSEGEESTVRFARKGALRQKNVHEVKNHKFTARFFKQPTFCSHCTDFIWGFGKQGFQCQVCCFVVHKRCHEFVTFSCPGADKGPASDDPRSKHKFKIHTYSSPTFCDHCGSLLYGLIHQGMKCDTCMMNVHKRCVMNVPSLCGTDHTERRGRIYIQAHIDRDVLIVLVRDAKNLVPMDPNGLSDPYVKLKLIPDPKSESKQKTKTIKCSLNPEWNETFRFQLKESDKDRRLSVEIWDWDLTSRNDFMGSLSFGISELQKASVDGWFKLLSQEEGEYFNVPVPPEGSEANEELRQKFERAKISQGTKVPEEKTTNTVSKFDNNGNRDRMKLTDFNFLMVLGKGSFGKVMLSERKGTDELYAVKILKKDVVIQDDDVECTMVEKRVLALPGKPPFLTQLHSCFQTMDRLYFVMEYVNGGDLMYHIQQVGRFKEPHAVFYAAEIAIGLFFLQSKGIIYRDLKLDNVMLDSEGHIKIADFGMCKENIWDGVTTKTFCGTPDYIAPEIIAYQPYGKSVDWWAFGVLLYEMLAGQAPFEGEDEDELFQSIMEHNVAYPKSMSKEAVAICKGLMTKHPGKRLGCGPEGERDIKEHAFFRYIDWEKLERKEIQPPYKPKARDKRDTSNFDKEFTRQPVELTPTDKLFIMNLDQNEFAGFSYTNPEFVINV
# Chain of Aurora kinase B (Q96GD4 whole entry): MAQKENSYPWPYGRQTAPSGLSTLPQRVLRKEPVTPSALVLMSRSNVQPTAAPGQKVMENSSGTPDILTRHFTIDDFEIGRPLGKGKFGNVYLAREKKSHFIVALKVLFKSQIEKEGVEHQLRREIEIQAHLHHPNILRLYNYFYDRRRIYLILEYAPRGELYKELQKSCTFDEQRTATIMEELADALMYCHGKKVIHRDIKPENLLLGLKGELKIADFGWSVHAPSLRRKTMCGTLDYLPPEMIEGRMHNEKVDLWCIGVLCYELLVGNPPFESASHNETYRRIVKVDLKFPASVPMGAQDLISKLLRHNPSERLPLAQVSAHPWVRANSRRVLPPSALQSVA
# Chain of Serine/threonine-protein kinase N1 (Q16512 whole entry): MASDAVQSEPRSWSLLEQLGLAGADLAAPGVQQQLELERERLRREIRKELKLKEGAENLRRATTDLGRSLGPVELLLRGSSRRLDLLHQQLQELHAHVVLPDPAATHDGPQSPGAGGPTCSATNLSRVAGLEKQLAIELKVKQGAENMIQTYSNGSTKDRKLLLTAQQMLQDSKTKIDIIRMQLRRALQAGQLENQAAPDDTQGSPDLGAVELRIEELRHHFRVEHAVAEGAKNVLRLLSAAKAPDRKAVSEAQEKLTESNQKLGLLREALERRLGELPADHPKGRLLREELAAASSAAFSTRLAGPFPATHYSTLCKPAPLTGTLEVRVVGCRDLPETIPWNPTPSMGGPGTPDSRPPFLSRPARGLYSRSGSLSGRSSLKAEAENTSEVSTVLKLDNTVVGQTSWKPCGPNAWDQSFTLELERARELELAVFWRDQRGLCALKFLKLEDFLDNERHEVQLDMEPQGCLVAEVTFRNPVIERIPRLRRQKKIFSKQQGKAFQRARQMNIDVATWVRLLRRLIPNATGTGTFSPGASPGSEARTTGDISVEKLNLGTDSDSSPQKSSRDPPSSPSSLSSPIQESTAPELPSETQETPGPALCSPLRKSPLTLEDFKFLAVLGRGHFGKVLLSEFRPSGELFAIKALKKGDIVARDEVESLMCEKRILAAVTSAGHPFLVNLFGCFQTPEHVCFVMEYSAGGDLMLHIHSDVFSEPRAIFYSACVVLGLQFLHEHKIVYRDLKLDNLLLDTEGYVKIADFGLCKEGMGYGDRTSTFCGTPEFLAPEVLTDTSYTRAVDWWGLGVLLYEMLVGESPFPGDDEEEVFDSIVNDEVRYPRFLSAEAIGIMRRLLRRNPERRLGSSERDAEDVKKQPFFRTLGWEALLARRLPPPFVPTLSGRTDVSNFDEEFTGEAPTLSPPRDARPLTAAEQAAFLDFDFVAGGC
# Chain of Myosin-14 (Q7Z406 whole entry): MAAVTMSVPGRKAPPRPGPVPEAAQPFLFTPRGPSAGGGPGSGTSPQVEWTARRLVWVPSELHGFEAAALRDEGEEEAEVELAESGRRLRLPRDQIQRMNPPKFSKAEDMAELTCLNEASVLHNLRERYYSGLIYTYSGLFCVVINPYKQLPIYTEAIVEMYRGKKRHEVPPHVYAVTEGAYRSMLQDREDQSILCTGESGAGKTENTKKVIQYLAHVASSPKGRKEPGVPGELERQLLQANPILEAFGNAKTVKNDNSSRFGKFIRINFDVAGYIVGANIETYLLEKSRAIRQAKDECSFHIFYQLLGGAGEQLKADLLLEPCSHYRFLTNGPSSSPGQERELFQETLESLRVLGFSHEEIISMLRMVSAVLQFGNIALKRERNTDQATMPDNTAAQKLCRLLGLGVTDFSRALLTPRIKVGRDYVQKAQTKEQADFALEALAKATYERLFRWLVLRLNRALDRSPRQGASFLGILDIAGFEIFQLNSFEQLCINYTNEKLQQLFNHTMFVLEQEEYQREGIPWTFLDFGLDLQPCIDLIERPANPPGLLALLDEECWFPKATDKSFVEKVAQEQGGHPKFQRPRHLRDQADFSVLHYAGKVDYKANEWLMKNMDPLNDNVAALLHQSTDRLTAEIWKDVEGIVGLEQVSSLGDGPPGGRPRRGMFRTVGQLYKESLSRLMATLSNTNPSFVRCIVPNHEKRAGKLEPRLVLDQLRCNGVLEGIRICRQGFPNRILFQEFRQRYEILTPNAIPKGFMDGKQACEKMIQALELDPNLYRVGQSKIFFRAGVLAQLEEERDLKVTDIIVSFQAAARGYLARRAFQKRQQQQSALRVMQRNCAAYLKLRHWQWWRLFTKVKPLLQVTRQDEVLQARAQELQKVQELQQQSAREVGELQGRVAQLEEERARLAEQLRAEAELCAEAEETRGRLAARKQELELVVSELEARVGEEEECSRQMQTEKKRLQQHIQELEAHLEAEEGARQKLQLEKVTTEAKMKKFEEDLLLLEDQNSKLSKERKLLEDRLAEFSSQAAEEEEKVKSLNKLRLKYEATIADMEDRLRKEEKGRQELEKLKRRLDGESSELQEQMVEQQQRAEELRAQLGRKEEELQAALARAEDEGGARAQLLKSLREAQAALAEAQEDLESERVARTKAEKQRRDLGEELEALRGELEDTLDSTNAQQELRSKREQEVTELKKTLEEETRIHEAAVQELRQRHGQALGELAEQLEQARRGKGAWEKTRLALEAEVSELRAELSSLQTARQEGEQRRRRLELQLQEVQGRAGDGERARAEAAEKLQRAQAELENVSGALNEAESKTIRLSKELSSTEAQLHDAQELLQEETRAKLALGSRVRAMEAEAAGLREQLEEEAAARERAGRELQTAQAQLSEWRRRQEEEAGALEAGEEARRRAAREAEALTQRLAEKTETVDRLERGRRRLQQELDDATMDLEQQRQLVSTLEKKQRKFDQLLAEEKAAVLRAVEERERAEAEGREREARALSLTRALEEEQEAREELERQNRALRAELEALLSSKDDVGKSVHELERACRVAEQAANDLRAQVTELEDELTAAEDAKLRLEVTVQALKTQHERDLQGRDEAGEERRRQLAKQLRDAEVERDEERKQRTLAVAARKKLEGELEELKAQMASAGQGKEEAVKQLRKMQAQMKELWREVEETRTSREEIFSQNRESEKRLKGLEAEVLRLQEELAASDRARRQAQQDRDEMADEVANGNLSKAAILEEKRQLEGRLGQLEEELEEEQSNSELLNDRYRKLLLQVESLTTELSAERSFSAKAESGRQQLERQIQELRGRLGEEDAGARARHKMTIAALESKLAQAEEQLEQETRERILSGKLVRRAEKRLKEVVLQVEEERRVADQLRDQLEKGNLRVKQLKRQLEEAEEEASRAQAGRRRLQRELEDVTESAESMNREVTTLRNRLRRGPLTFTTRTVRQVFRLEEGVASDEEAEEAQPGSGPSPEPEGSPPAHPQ
SMILES,Kd (Aurora kinase B),Kd (Myosin-14),Kd [1],Kd [2],Kd [3],Kd [4]
C[C@@H](Oc1cc(C(=O)Nc2ccc(C(=O)N3CCN(C)CC3)cc2)nnc1N)c1c(Cl)ccc(F)c1Cl,> 30 µM (inactive),> 30 µM (inactive),> 30 µM (inactive),> 30 µM (inactive),> 30 µM (inactive),> 30 µM (inactive)
C[C@H]1CNCCCN1S(=O)(=O)c1cccc2cncc(F)c12,1.15 µM (active),> 30 µM (inactive),> 30 µM (inactive),0.416 µM (active),> 30 µM (inactive),11.8 µM (active)
CC(=O)c1cnc2ccc(-c3cc(Cl)c(O)c(Cl)c3)nc2c1N[C@H]1CC[C@H](CN(C)C)CC1,0.126 µM (active),> 30 µM (inactive),> 30 µM (inactive),0.244 µM (active),0.233 µM (active),0.021 µM (active)
CCNC(=O)C#Cc1ccc2c(c1)NC(=O)/C2=C(\Nc1ccc(CN(C)C)cc1)c1ccccc1,0.059 µM (active),> 30 µM (inactive),> 30 µM (inactive),> 30 µM (inactive),> 30 µM (inactive),> 30 µM (inactive)
C=CC(=O)N1CCC[C@H](n2c(=O)n(-c3ccc(Oc4ccccc4)cc3)c3c(N)ncnc32)C1,> 30 µM (inactive),> 30 µM (inactive),> 30 µM (inactive),> 30 µM (inactive),> 30 µM (inactive),> 30 µM (inactive)
Cc1nc2cc(-c3nn(C(C)C)c4ncnc(N)c34)ccc2o1,> 30 µM (inactive),> 30 µM (inactive),> 30 µM (inactive),> 30 µM (inactive),> 30 µM (inactive),> 30 µM (inactive)
COCc1c(-c2ccc(NC(=O)Nc3cc(C(F)(F)F)ccc3F)c(F)c2)c2c(N)ncnn2c1CN1CCOCC1,> 30 µM (inactive),> 30 µM (inactive),> 30 µM (inactive),> 30 µM (inactive),> 30 µM (inactive),> 30 µM (inactive)
Nc1ncnc2c1c(-c1cccc(OCc3ccccc3)c1)cn2[C@H]1C[C@@H](CN2CCC2)C1 [AEW-541],> 30 µM (inactive),> 30 µM (inactive),> 30 µM (inactive),> 30 µM (inactive),> 30 µM (inactive),> 30 µM (inactive)
COc1cc(Nc2ncc3c(n2)-c2ccc(Cl)cc2C(c2c(F)cccc2OC)=NC3)ccc1C(=O)O [ALISERTIB],–,> 30 µM (inactive),> 30 µM (inactive),> 30 µM (inactive),> 30 µM (inactive),> 30 µM (inactive)
Cc1nc(NC(=O)N2CCC[C@H]2C(N)=O)sc1-c1ccnc(C(C)(C)C(F)(F)F)c1 [ALPELISIB],> 30 µM (inactive),> 30 µM (inactive),> 30 µM (inactive),> 30 µM (inactive),> 30 µM (inactive),> 30 µM (inactive)
Cc1csc(-c2nnc(Nc3ccc(Oc4ncccc4-c4ccnc(N)n4)cc3)c3ccccc23)c1 [AMG-900],0.02 µM (active),> 30 µM (inactive),> 30 µM (inactive),> 30 µM (inactive),> 30 µM (inactive),1.77 µM (active)
O=C(Nc1c[nH]nc1-c1nc2cc(CN3CCOCC3)ccc2[nH]1)NC1CC1 [AT-9283],0.017 µM (active),> 30 µM (inactive),> 30 µM (inactive),–,3.38 µM (active),> 30 µM (inactive)
C=CC(=O)Nc1cc2c(Nc3ccc(F)c(Cl)c3)ncnc2cc1C#CC(C)(C)N1CCN(C)CC1 [AV-412 FREE BASE],> 30 µM (inactive),–,> 30 µM (inactive),> 30 µM (inactive),> 30 µM (inactive),> 30 µM (inactive)
CNC(=O)c1ccccc1Sc1ccc2c(/C=C/c3ccccn3)n[nH]c2c1 [AXITINIB],–,> 30 µM (inactive),> 30 µM (inactive),–,> 30 µM (inactive),–
COc1cc([C@@H]2c3cc4c(cc3[C@H](O)[C@H]3COC(=O)[C@@H]23)OCO4)cc(OC)c1OC [AXL-1717],> 30 µM (inactive),> 30 µM (inactive),> 30 µM (inactive),> 30 µM (inactive),> 30 µM (inactive),> 30 µM (inactive)
NC(=O)Nc1cc(-c2cccc(F)c2)sc1C(=O)N[C@H]1CCCNC1 [AZD-7762],0.715 µM (active),> 30 µM (inactive),> 30 µM (inactive),2.16 µM (active),> 30 µM (inactive),> 30 µM (inactive)
CCS(=O)(=O)N1CCN(c2ccc(Nc3ncc(C(N)=O)c(NC4CC4)n3)cc2)CC1 [Cerdulatinib Hydrochloride],3.79 µM (active),–,> 30 µM (inactive),> 30 µM (inactive),> 30 µM (inactive),8.26 µM (active)
Cn1cc(C2=C(c3cn(C4CCN(Cc5ccccn5)CC4)c4ccccc34)C(=O)NC2=O)c2ccccc21 [ENZASTAURIN],–,> 30 µM (inactive),> 30 µM (inactive),–,–,–
Cc1nc2cc(-n3ncc(C(=O)c4cc5ccccc5[nH]4)c3N)ccc2[nH]1 [FGFR INHIBITOR DEBIO 1347],> 30 µM (inactive),–,> 30 µM (inactive),> 30 µM (inactive),> 30 µM (inactive),> 30 µM (inactive)
C[C@@H](Oc1cc(-n2cnc3ccc(CN4CCN(C)CC4)cc32)sc1C(N)=O)c1ccccc1C(F)(F)F [GSK-461364],–,> 30 µM (inactive),> 30 µM (inactive),–,> 30 µM (inactive),–
COc1ccc(S(=O)(=O)N(C(C)=O)c2ccccc2/C=C/c2cc[n+]([O-])cc2)cc1 [HMN-214],> 30 µM (inactive),–,> 30 µM (inactive),> 30 µM (inactive),> 30 µM (inactive),> 30 µM (inactive)
Cc1[nH]c(/C=C2\C(=O)Nc3ccccc32)c(C)c1CCC(=O)O [ORANTINIB],–,> 30 µM (inactive),> 30 µM (inactive),> 30 µM (inactive),> 30 µM (inactive),> 30 µM (inactive)
NC(=O)c1c(OCc2c(F)cc(Br)cc2F)nsc1NC(=O)NCCCCN1CCCC1 [OSI-632],–,> 30 µM (inactive),> 30 µM (inactive),–,> 30 µM (inactive),–
Cc1nc(Nc2n[nH]c3c2CN(C(=O)N[C@H](CN(C)C)c2ccccc2)C3(C)C)c2sccc2n1 [PF-03758309],2.08 µM (active),> 30 µM (inactive),> 30 µM (inactive),–,5.89 µM (active),> 30 µM (inactive)
CC(=O)NCC(=O)N1[C@@H]2CC[C@H]1c1ccc(Nc3ncc(C(F)(F)F)c(NC4CCC4)n3)cc12 [PF-03814735],0.02 µM (active),–,> 30 µM (inactive),2.94 µM (active),> 30 µM (inactive),2.4 µM (active)
O=C(NOCCO)c1cc(CN2OCCCC2=O)c(F)c(F)c1Nc1ccc(I)cc1F [RO-4987655],–,> 30 µM (inactive),> 30 µM (inactive),–,> 30 µM (inactive),–
N#CC[C@H](C1CCCC1)n1cc(-c2ncnc3[nH]ccc23)cn1 [RUXOLITINIB],–,> 30 µM (inactive),> 30 µM (inactive),–,> 30 µM (inactive),–
Cn1ncc(Cl)c1-c1cc(C(=O)N[C@H](CN)Cc2ccc(F)c(F)c2)oc1Cl [UPROSERTIB],> 30 µM (inactive),> 30 µM (inactive),> 30 µM (inactive),0.076 µM (active),–,> 30 µM (inactive)
